The target of one assay is TXK (Homo sapiens (Human), UniProt P42681). Briefly: Kinase inhibition assay (Nanosyn, microfluidic detection), TXK. The format is biochemical. The conditions noted are these: 1 mM ATP, 3 hours at 25° C. As to the method: The in vitro kinase assays were performed at Nanosyn (Santa Clara, Calif.) utilizing microfluidic detection technology. The test compounds were serially pre-diluted in DMSO and added, by the acoustic dispensing (Labcyte® 550), directly to 384 well assay plates into 10 uL of a buffer with enzyme (ITK, TXK, BTK or TEC) comprising: 100 mM HEPES, pH7.5, 5 mM MgCl2, 0.1% bovine serum albumin, 1 mM DTT, 0.01% Triton X-100 and the enzyme. Final DMSO concentration was maintained at 1% in all samples, including the controls. The reactions were initiated by addition of ATP (1 mM final concentration) and the fluorescently labeled peptide substrate to a final concentration of 1 uM, and incubated for 3 hours at 25° C. Following incubation, the reactions were quenched by addition of 40 μL of termination buffer (100 mM HEPES, pH7.5, 0.01% Triton X-100, 50 mM EDTA). Terminated plates were analyzed using Caliper LabChip® 3000 microfluidic electrophoresis instrument (Caliper Life Sciences/Perkin Elmer). […] As substrate and product are separated by electrophoresis, two peaks of fluorescence are observed. Change in the relative fluorescence intensity of the substrate and product peaks was the parameter measured, reflecting enzyme activity. In the presence of inhibitor, the ratio between product and substrate is altered: signal of the product decreases, while the signal of the substrate increases. Activity in each test sample was determined as the product to sum ratio (PSR): P/(S+P), where P is the peak height of the product and S is the peak height of the […]. For each compound, enzyme activity was measured at 12 concentrations spaced by 3× dilution intervals. Negative control samples (0%-inhibition in the absence of inhibitor, DMSO only) and positive control samples (100%-inhibition, in the absence of enzyme or in the presence of control inhibitor) were assembled in replicates of four and were used to calculate %-inhibition values in the presence of compounds. Percent inhibition (Pinh) was determined using the following equation: Pinh=(PSR0%−PSRinh)/(PSR0%−PSR100%)*100, where PSRinh is the product sum ratio in the presence of inhibitor, PSR0% is the product sum ratio in the absence of inhibitor and PSR100% is the product sum ratio in 100%-inhibition control samples. To determine IC50 values, the inhibition curves (Pinh versus inhibitor concentration) were fitted by 4 parameter sigmoid dose-response model using XLfit software (IDBS).

Another assay has as its target BTK (Homo sapiens (Human), UniProt Q06187). Nature of the assay: Kinase inhibition assay (Nanosyn, microfluidic detection), BTK. The format is biochemical. The conditions noted are these: 1 mM ATP, 3 hours at 25° C.

pIC50: −log10 of the molar value.

The record followed here is patent publication US10752615B2, “Spirocyclic containing compounds and pharmaceutical uses thereof” (GB005, Inc., priority 2016, dated 2020).

Chain of BTK (Q06187 whole entry): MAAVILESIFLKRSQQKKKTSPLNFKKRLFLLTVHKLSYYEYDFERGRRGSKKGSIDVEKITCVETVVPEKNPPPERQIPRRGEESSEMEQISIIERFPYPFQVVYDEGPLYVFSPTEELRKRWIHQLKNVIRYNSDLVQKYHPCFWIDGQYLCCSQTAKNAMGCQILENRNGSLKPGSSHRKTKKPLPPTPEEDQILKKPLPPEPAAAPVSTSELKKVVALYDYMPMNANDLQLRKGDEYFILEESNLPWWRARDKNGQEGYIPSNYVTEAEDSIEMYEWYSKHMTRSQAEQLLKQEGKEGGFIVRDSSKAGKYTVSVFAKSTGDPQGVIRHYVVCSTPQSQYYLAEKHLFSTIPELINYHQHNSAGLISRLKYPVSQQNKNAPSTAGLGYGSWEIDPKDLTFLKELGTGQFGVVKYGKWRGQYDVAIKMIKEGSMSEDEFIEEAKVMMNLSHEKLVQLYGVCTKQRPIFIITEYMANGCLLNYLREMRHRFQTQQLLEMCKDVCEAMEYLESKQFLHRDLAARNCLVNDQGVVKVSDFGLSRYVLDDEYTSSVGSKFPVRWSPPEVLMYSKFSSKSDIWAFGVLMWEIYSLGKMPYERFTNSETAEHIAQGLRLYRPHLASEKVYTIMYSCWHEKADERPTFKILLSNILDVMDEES
Chain of TXK (P42681 whole entry): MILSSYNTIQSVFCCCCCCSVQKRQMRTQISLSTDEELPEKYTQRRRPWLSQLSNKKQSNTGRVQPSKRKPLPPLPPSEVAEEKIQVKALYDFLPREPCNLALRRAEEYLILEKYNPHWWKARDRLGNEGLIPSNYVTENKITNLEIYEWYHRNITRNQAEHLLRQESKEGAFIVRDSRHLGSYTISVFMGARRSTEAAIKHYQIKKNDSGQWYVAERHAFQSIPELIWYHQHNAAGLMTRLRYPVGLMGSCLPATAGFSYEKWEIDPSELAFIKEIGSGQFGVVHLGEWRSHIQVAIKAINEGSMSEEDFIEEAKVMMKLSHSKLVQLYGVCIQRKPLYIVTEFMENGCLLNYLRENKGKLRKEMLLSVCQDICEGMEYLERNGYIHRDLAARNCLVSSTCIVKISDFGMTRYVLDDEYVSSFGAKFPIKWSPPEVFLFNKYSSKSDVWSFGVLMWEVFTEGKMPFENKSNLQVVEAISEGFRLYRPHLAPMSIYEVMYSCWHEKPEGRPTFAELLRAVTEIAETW

Take `C=CC(=O)N1CC[C@]2(C1)C[C@@H](n1c(NC(=O)c3ccc(-c4cnco4)s3)nc3ccc(CO)cc31)C2` [Compound 78]: the pIC50 on TXK was 8.63; against BTK, 7.93.

Consider `C=CC(=O)N1CC[C@]2(C1)C[C@H](n1c(NC(=O)c3cc(C)cs3)nc3ccccc31)C2` [Compound 79], for which the values for the pIC50 at TXK and on BTK were 7.77 and 6.60, respectively.

Turning to `C=CC(=O)N1CC[C@]2(C1)C[C@H](n1c(NC(=O)c3cccs3)nc3ccccc31)C2` [Compound 82], the pIC50 against TXK is 8.48; against BTK it was 7.48.

Turning to `C=CC(=O)N1CC[C@]2(C1)C[C@H](n1c(NC(=O)c3ccc(=O)[nH]c3)nc3ccccc31)C2` [Compound 83], the pIC50 against TXK was 8.70; against BTK, 8.12.

Take `C=CC(=O)N1CC[C@]2(C1)C[C@H](n1c(NC(=O)c3ccn(C)c(=O)c3)nc3ccccc31)C2` [Compound 84]: the figures for the pIC50 on TXK and against BTK were 7.70 and 7.19, respectively.

As for `C=CC(=O)N1CC[C@]2(C1)C[C@@H](n1c(NC(=O)c3ccc(-c4cnco4)s3)nc3ccc(CN4CCCC4)cc31)C2` [Compound 86], the pIC50 against TXK is 8.65; against BTK, 8.08.

For `C=CC(=O)N1CC[C@]2(C1)C[C@H](n1c(NC(=O)c3ccc(-n4cccn4)s3)nc3ccccc31)C2` [Compound 89], the figures for the pIC50 against TXK and against BTK were 8.50 and 7.63, respectively.

Regarding `C=CC(=O)N1CC[C@]2(C1)C[C@H](n1c(NC(=O)c3ccc(-c4cccnc4)s3)nc3ccccc31)C2` [Compound 90], the pIC50 was 9.29 on TXK and 8.28 on BTK.

As for `C=CC(=O)N1CC[C@]2(C1)C[C@H](n1c(NC(=O)c3ccc(-c4nnc(C)o4)s3)nc3ccccc31)C2` [Compound 94], the pIC50 was 9.09 against TXK and 8.86 on BTK.

As for `C=CC(=O)N1CC[C@]2(C1)C[C@H](n1c(NC(=O)c3ccc(-c4ccc(OC)nc4)s3)nc3ccccc31)C2` [Compound 95], the figures for the pIC50 against TXK and against BTK were 8.04 and 7.71, respectively.

In the case of `C=CC(=O)N1CC[C@]2(C1)C[C@H](n1c(NC(=O)c3ccc(-c4ccnc(OC)c4)s3)nc3ccccc31)C2` [Compound 96], the pIC50 was 9.46 at TXK and 8.81 against BTK.

Regarding `C=CC(=O)N1CC[C@]2(C1)C[C@H](n1c(NC(=O)c3ccc(-c4ccc(=O)[nH]c4)s3)nc3ccccc31)C2` [Compound 99], the values for the pIC50 on TXK and at BTK were 9.00 and 7.99, respectively.

With `C=CC(=O)N1CC[C@]2(C1)C[C@H](n1c(NC(=O)c3ccc(C(=O)NCC)s3)nc3ccccc31)C2` [Compound 101], the pIC50 is 9.03 against TXK and 8.03 against BTK.

On to `C=CC(=O)N1CC[C@]2(C1)C[C@H](n1c(NC(=O)c3ccc(-c4ccccc4)s3)nc3ccccc31)C2` [Compound 103], for which the pIC50 at TXK was 9.03; at BTK, 8.21.

With `C=CC(=O)N1CC[C@]2(C1)C[C@H](n1c(NC(=O)c3ccc(C)s3)nc3ccccc31)C2` [Compound 104], the results for the pIC50 at TXK and against BTK were 8.67 and 7.58, respectively.

For `C=CC(=O)N1CC[C@]2(C1)C[C@H](n1c(NC(=O)c3ccc(NC(=O)CC)s3)nc3ccccc31)C2` [Compound 105], the pIC50 is 7.63 on TXK and 6.95 against BTK.

Turning to `C#Cc1ccc(C(=O)Nc2nc3ccccc3n2[C@H]2C[C@@]3(CCN(C(=O)C=C)C3)C2)s1` [Compound 107], the pIC50 is 8.28 against TXK and 7.68 against BTK.

For `C=CC(=O)N1CC[C@]2(C1)C[C@H](n1c(NC(=O)c3ccc(-c4ccc(=O)n(C)c4)s3)nc3ccccc31)C2` [Compound 108], the pIC50 at TXK was 8.99; against BTK it was 7.98.

Take `C=CC(=O)N1CC[C@]2(C1)C[C@H](n1c(NC(=O)c3ccc(-c4ccn(C)c(=O)c4)s3)nc3ccccc31)C2` [Compound 109]: the pIC50 against TXK is 7.85; on BTK it was 7.36.

On to `C=CC(=O)N1CC[C@]2(C1)C[C@H](n1c(NC(=O)c3ccc(-c4ccncc4)s3)nc3ccccc31)C2` [Compound 110], for which the negative-log IC50 (pIC50) is 9.74 on TXK and 8.95 against BTK.

Consider `C=CC(=O)N1CC[C@]2(C1)C[C@H](n1c(NC(=O)c3ccc(-c4cnn(C)c4)s3)nc3ccccc31)C2` [Compound 113], for which the results for the negative logarithm of the IC50 (pIC50) against TXK and on BTK were 8.88 and 8.33, respectively.

For `C=CC(=O)N1CC[C@]2(C1)C[C@H](n1c(NC(=O)c3ccc(-c4ccnnc4)s3)nc3ccccc31)C2` [Compound 114], the values for the negative logarithm of the IC50 (pIC50) on TXK and on BTK were 9.66 and 8.48, respectively.

As to `C=CC(=O)N1CC[C@]2(C1)C[C@H](n1c(NC(=O)c3ccc(-c4cc[nH]n4)s3)nc3ccccc31)C2` [Compound 116], the pIC50 is 8.51 against TXK and 7.80 at BTK.

`C=CC(=O)N1CC[C@]2(C1)C[C@H](n1c(NC(=O)c3ccc(-c4ccc(NC)nc4)s3)nc3ccccc31)C2` [Compound 117]: the pIC50 against TXK was 8.31; on BTK it was 8.13.

Turning to `C=CC(=O)N1CC[C@]2(C1)C[C@H](n1c(NC(=O)c3ccc(-c4cncn4C)s3)nc3ccccc31)C2` [Compound 123], the pIC50 against TXK is 9.31; against BTK, 8.27.

As to `C=CC(=O)N1CC[C@]2(C1)C[C@H](n1c(NC(=O)c3ccc(-c4cn[nH]c4)s3)nc3ccccc31)C2` [Compound 124], the pIC50 at TXK is 9.47; on BTK, 8.84.

As for `C=CC(=O)N1CC[C@]2(C1)C[C@H](n1c(NC(=O)c3ccc(-c4ccnc(F)c4)s3)nc3ccccc31)C2` [Compound 125], the figures for the pIC50 against TXK and against BTK were 9.62 and 8.97, respectively.

Regarding `C=CC(=O)N1CC[C@]2(C1)C[C@H](n1c(NC(=O)c3ccc(-c4ccc(F)nc4)s3)nc3ccccc31)C2` [Compound 126], the pIC50 on TXK was 9.10; against BTK, 8.04.

`C=CC(=O)N1CC[C@]2(C1)C[C@H](n1c(NC(=O)c3ccc(-c4c[nH]nc4C4CC4)s3)nc3ccccc31)C2` [Compound 129]: the pIC50 against TXK was 9.68; against BTK it was 9.08.

On to `C=CC(=O)N1CC[C@]2(C1)C[C@H](n1c(NC(=O)c3ccc(-c4cnccn4)s3)nc3ccccc31)C2` [Compound 132], for which the pIC50 on TXK is 8.70; on BTK, 7.99.

With `C=CC(=O)N1CC[C@]2(C1)C[C@H](n1c(NC(=O)c3ccc(-c4ccncn4)s3)nc3ccccc31)C2` [Compound 133], the figures for the pIC50 against TXK and against BTK were 9.43 and 8.49, respectively.

Consider `C=CC(=O)N1CC[C@]2(C1)C[C@H](n1c(NC(=O)c3ccc(-c4cncnc4C)s3)nc3ccccc31)C2` [Compound 134], for which the pIC50 on TXK was 9.00; on BTK, 8.08.

`C=CC(=O)N1CC[C@]2(C1)C[C@H](n1c(NC(=O)c3ccc(-c4cnc(C)nc4)s3)nc3ccccc31)C2` [Compound 135]: the pIC50 is 8.06 on TXK and 7.90 against BTK.

Take `C=CC(=O)N1CC[C@]2(C1)C[C@H](n1c(NC(=O)c3ccc(-c4ccnc(NC)n4)s3)nc3ccccc31)C2` [Compound 137]: the pIC50 against TXK is 9.12; at BTK, 9.01.

Take `C=CC(=O)N1CC[C@]2(C1)C[C@H](n1c(NC(=O)c3ccc(-c4cccc(NC)n4)s3)nc3ccccc31)C2` [Compound 139]: the pIC50 at TXK was 9.12; against BTK, 8.81.

`C=CC(=O)N1CC[C@]2(C1)C[C@H](n1c(NC(=O)c3ccc(-c4cncc(NC)n4)s3)nc3ccccc31)C2` [Compound 140]: the values for the pIC50 against TXK and against BTK were 9.70 and 9.27, respectively.

Turning to `C=CC(=O)N1CC[C@]2(C1)C[C@H](n1c(NC(=O)c3ccc(-c4cc(N)ncn4)s3)nc3ccccc31)C2` [Compound 141], the pIC50 against TXK is 9.54; against BTK it was 8.74.

As for `C=CC(=O)N1CC[C@]2(C1)C[C@H](n1c(NC(=O)c3ccc(-c4cncc(NC)c4)s3)nc3ccccc31)C2` [Compound 142], the values for the pIC50 on TXK and against BTK were 9.32 and 9.21, respectively.

As for `C=CC(=O)N1CC[C@]2(C1)C[C@H](n1c(NC(=O)c3ccc(-c4ccc(C)nc4)s3)nc3ccccc31)C2` [Compound 143], the pIC50 at TXK is 8.04; at BTK it was 8.10.

As to `C=CC(=O)N1CC[C@]2(C1)C[C@H](n1c(NC(=O)c3ccc(-c4ccc(CO)nc4)s3)nc3ccccc31)C2` [Compound 144], the results for the pIC50 at TXK and against BTK were 8.82 and 8.46, respectively.

With `C=CC(=O)N1CC[C@]2(C1)C[C@H](n1c(NC(=O)c3ccc(-c4cc(NC)ncn4)s3)nc3ccccc31)C2` [Compound 145], the pIC50 at TXK is 9.70; against BTK, 9.31.
